{"source": "patent US8883203B2", "about": "“Solid oral dosage form containing an enhancer” (Merrion Research III Limited, priority 2006, dated 2014)", "key": {"Caco-2 monolayers": {"test_system": "Caco-2 monolayers", "assay": "TEER of Caco-2 monolayers with MCFA sodium salts", "type": "cell-based", "settings": "sodium salts with 3H-TRH, over 2 hours, concentrations of Table 1", "experimental": "Cell Culture: Caco-2 cells were cultured in Dulbecco's Modified Eagles Medium (DMEM) 4.5 g/L glucose supplemented with 1% (v/v) non-essential amino acids; 10% fetal calf serum and 1% penicillin/streptomycin. […] The cells were grown and expanded in standard tissue culture flasks and were passaged once they attained 100% confluence. The Caco-2 cells were then seeded on polycarbonate filter inserts (Costar; 12 mm diameter, 0.4 μm pore size) at a density of 5×10^5 cells/cm^2 and incubated in six well culture plates with a medium change every second day. Confluent monolayers between day 20 and day 30 seeding on filters and at passages 30-40 were used throughout these studies.\nThe transport experiments were performed in Hank's Balanced Salt Solution (HBSS) containing 25 mM N[2-hydroxyethyl]-piperazine-N′-[2-ethanesulfonic acid] (HEPES) buffer, pH 7.4 at 37° C. Due to variations in solubilities, various concentrations of the different MCFA sodium salts and various apical buffers were used as shown in Table 1. In all cases the basolateral chamber contained regular HBSS+HEPES.\nAfter removing the cell culture medium, the monolayers were placed in wells containing prewarmed HBSS (37° C.); 1 ml apically and 2 ml basolaterally. Monolayers were incubated at 37° C. for 30 mins. Then at time zero, apical HBSS was replaced with the relevant apical test solution containing the radiolabelled compounds with and without the enhancer compound. […] The plates were placed on an orbital shaker in an incubator (37° C.). Transport across the monolayers was followed by basolateral sampling (1 ml) at 30 min. intervals up to 120 mins. At each 30 min. interval each insert was transferred to a new well containing 2 ml fresh prewarmed HBSS. Apical stock radioactivity was determined by taking 10 μl samples at t=0 and t=120 mins. […] Mean values for ^3H-TRH concentrations were calculated for the apical and basolateral solutions at each time point."}, "[1]": {"assay": "Closed loop rat model, intraduodenal TRH with enhancer, serum TRH", "type": "in vivo, Male Wistar rats", "settings": "500 μg or 1000 μg TRH with 35 mg enhancer, interduodenal bolus", "experimental": "Male Wistar rats (weight range 250 g-350 g) were anaesthetized with ketamine hydrochloride/acepromazine. […] All intraduodenal dose volumes (for samples and control) were 1 ml/kg. The proximal end of the segment was ligated and the loop was sprayed with isotonic saline (37° C.) to provide moisture and then replaced in the abdominal cavity avoiding distension. The incision was closed with surgical clips. A group of animals were administered TRH in PBS (100 μg in 0.2 ml) by subcutaneous injection as a reference."}, "anti-factor Xa activity [2]": {"test_system": "anti-factor Xa activity", "assay": "Closed-loop rat segment, intraileal USP heparin with enhancer, anti-factor Xa response", "settings": "USP heparin 1000 IU", "experimental": "The procedure carried out in Example 1(a) above was repeated using USP heparin in place of TRH and dosing intraileally rather than intraduodenally. A mid-line incision was made in the abdomen and the distal end of the ileum located (about 10 cm proximal to the ileo-caecal junction). 7-9 cm of tissue was isolated and the distal end ligated, taking care to avoid damage to surrounding blood vessels. Heparin absorption as indicated by […] (APTT) response was measured by placing a drop of whole blood (freshly sampled from the tail artery) on the test cartridge of Biotrack 512 coagulation monitor. APTT measurements were taken at various time points.\nCitrated blood samples were centrifuged at 3000 rpm for 15 mins. to obtain plasma for anti-factor Xa analysis. […] The control in each case is a solution of the same heparin concentration containing no enhancer."}, "APTT": {"test_system": "APTT", "assay": "Closed-loop rat segment, intraileal USP heparin with enhancer, APTT response", "type": "in vivo", "settings": "USP heparin 1000 IU, enhancer 10 and 35 mg", "description": "APTT measurements were taken at various time points."}, "[3]": {"settings": "cited from earlier work"}, "anti-factor Xa activity [4]": {"test_system": "anti-factor Xa activity", "assay": "Site of administration of LMWH with sodium caprate in dogs, anti-factor Xa", "type": "in vivo, beagle dogs", "settings": "45,000 IU LMWH and 0.55 g sodium caprate, oral, intrajejunal, intracolonic", "description": "Four beagle dogs (10-15 Kg) were surgically fitted with catheters to the jejunum and colon respectively. […] 3,200 IU Fluxum™ SC was included in the study as a subcutaneous reference."}, "anti-factor Xa activity [5]": {"test_system": "anti-factor Xa activity", "assay": "Intraduodenal LMWH with enhancers in rats (open loop), anti-factor Xa", "type": "in vivo, Male Wistar rats", "settings": "1000 IU parnaparin sodium intraduodenally"}}, "data": [{"molecule": "CCCCCCCCCCCC(=O)[O-].[Na+]", "note": "[Batch C12, sodium laurate]", "values": [{"measurement": "effect on TEER (Ωcm^2) compared to the control", "setting": "Caco-2 monolayers", "value": "some cell damage (reduction in TEER)"}]}, {"molecule": "CCCCCCCCCCCCCC(=O)[O-].[Na+]", "note": "[Batch C14]", "values": [{"measurement": "effect on TEER (Ωcm^2) compared to the control", "setting": "Caco-2 monolayers", "value": "minimal reduction in TEER"}]}, {"molecule": "CCCCCCCCCCCCCCCCCC(=O)[O-].[Na+]", "note": "[Batch C18]", "values": [{"measurement": "effect on TEER (Ωcm^2) compared to the control", "setting": "Caco-2 monolayers", "value": "minimal reduction in TEER"}]}, {"molecule": "CCCCCCCC(=O)[O-].[Na+]", "note": "[NaC8, sodium caprylate]", "values": [{"measurement": "serum levels of TRH over the control TRH solution", "setting": "[1]", "value": "significantly increases"}]}, {"molecule": "CCCCCCCCCC(=O)[O-].[Na+]", "note": "[NaC10, sodium caprate]", "values": [{"measurement": "anti-factor Xa activity relative to control heparin solution", "setting": "anti-factor Xa activity [2]; enhancer 10 mg", "value": "significant increase in anti-factor Xa activity"}, {"measurement": "anti-factor Xa activity relative to control heparin solution", "setting": "anti-factor Xa activity [2]; enhancer 35 mg", "value": "significant increase in anti-factor Xa activity"}, {"measurement": "effect on TEER (Ωcm^2) compared to the control", "setting": "Caco-2 monolayers", "value": "minimal reduction in TEER"}, {"measurement": "heparin absorption by APTT response compared to control heparin solution", "setting": "APTT", "value": "significant increase in absorption"}, {"measurement": "serum levels of TRH over the control TRH solution", "setting": "[1]", "value": "significantly increases"}]}, {"molecule": "NCCCC(O)(P(=O)(O)O)P(=O)(O)O", "note": "[alendronate, Alendronate monosodium trihydrate]", "values": [{"measurement": "further share of the dose absorbed excreted in the urine", "setting": "[3]; over the next 64 hours", "value": 5, "unit": "%"}, {"measurement": "share of the dose absorbed excreted in the urine", "setting": "[3]; within 8 hours, oral conventional forms", "value": 40, "unit": "%"}]}, {"molecule": "parnaparin sodium [LMWH]", "values": [{"measurement": "intestinal absorption of LMWH versus absorption from the stomach", "setting": "anti-factor Xa activity [4]", "value": "considerably higher"}, {"measurement": "systemic delivery of LMWH in the absence of enhancer", "setting": "anti-factor Xa activity [5]", "value": "relatively poor"}]}]}
